Reference: PubChem BioAssay (NCI)
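Briefly, cells in 96-well plates were exposed to five compound concentrations for 48 h, and endpoints were estimated by linear interpolation. The concentration for 50% growth inhibition is given as GI50. TGI: total growth inhibition.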

How the values were obtained:
Assay in all cases: growth of human tumour cells (NCI), 48 h
HOP-92 NSCLC = tested on: HOP-92 NSCLC
K-562 leukemia = tested on: K-562 leukemia
KM12 colon = tested on: KM12 colon
OVCAR-4 ovarian = tested on: OVCAR-4 ovarian
OVCAR-8 ovarian = tested on: OVCAR-8 ovarian
SW-620 colon = tested on: SW-620 colon
U251 CNS = tested on: U251 CNS
UACC-62 melanoma = tested on: UACC-62 melanoma

CCC[C@H](Nc1nc(-c2ccc(NC(=O)NCC)c(OC)c2)ncc1C)c1cccnc1
GI50 (HOP-92 NSCLC): 0.236 µM | TGI (HOP-92 NSCLC): 12.5 µM | GI50 (K-562 leukemia): 0.031 µM | TGI (K-562 leukemia): 16.4 µM | GI50 (KM12 colon): 0.0337 µM | TGI (KM12 colon): 0.225 µM | GI50 (OVCAR-4 ovarian): 0.0691 µM | TGI (OVCAR-4 ovarian): 41.8 µM | GI50 (OVCAR-8 ovarian): 0.0369 µM | TGI (OVCAR-8 ovarian): 14.6 µM | GI50 (SW-620 colon): 0.0425 µM | TGI (SW-620 colon): > 88.4 µM | GI50 (U251 CNS): 0.0395 µM | TGI (U251 CNS): 17.7 µM | GI50 (UACC-62 melanoma): 0.0572 µM | TGI (UACC-62 melanoma): > 48.5 µM

Cc1c(N(C(=O)c2cc(-c3cc(Cl)ccc3C(=O)N3Cc4ccccc4C[C@H]3CN3CCOCC3)n(C)c2C)c2ccc(O)cc2)cc(C#N)n1C
GI50 (HOP-92 NSCLC): 5.24 µM | TGI (HOP-92 NSCLC): 22.6 µM | GI50 (K-562 leukemia): 10.8 µM | TGI (K-562 leukemia): > 100 µM | GI50 (KM12 colon): 51 µM | TGI (KM12 colon): > 100 µM | GI50 (OVCAR-4 ovarian): 11.4 µM | TGI (OVCAR-4 ovarian): > 100 µM | GI50 (OVCAR-8 ovarian): 55.8 µM | TGI (OVCAR-8 ovarian): > 100 µM | GI50 (SW-620 colon): 34.4 µM | TGI (SW-620 colon): > 100 µM | GI50 (U251 CNS): 18.9 µM | TGI (U251 CNS): > 100 µM | GI50 (UACC-62 melanoma): 20.6 µM | TGI (UACC-62 melanoma): > 100 µM

COc1cc(-c2ccc(-[n+]3nc(-c4ccc([N+](=O)[O-])cc4)nn3-c3ccc([N+](=O)[O-])cc3)c(OC)c2)ccc1-[n+]1nc(-c2ccc([N+](=O)[O-])cc2)nn1-c1ccc([N+](=O)[O-])cc1
GI50 (K-562 leukemia): 3.39 µM | TGI (K-562 leukemia): > 44.6 µM | GI50 (KM12 colon): 4.04 µM | TGI (KM12 colon): 21.4 µM | GI50 (OVCAR-4 ovarian): 3.56 µM | TGI (OVCAR-4 ovarian): 55.7 µM | GI50 (OVCAR-8 ovarian): 12.9 µM | TGI (OVCAR-8 ovarian): > 71.5 µM | GI50 (SW-620 colon): 2.99 µM | TGI (SW-620 colon): 25.1 µM | GI50 (U251 CNS): 10.8 µM | TGI (U251 CNS): 38.7 µM | GI50 (UACC-62 melanoma): 22 µM | TGI (UACC-62 melanoma): > 82.8 µM

COc1cc(/C=C2\C[C@H]3[C@@H]4CC=C5C[C@@H](OC(C)=O)CC[C@]5(C)[C@H]4CC[C@]3(C)[C@H]2OC(C)=O)ccc1OCCCn1ccnc1
GI50 (HOP-92 NSCLC): 9.45 µM | TGI (HOP-92 NSCLC): 20 µM | GI50 (K-562 leukemia): 5.59 µM | TGI (K-562 leukemia): 19.7 µM | GI50 (KM12 colon): 8.31 µM | TGI (KM12 colon): 18.1 µM | GI50 (OVCAR-8 ovarian): 10.7 µM | TGI (OVCAR-8 ovarian): 24.7 µM | GI50 (SW-620 colon): 10.3 µM | TGI (SW-620 colon): > 30.1 µM | GI50 (U251 CNS): 6.28 µM | TGI (U251 CNS): 12.7 µM | GI50 (UACC-62 melanoma): 8.81 µM | TGI (UACC-62 melanoma): 16.1 µM

O=C1OC2(c3ccccc31)c1cc(I)c(O)c(I)c1Oc1c2cc(I)c(O)c1I
TGI (HOP-92 NSCLC): > 100 µM | TGI (K-562 leukemia): > 100 µM | TGI (KM12 colon): 43.1 µM | TGI (OVCAR-4 ovarian): > 100 µM | TGI (OVCAR-8 ovarian): > 100 µM | TGI (SW-620 colon): > 100 µM | TGI (U251 CNS): > 100 µM | TGI (UACC-62 melanoma): > 100 µM

COc1ccc(C(=O)c2ccc(OC)cc2OC)cc1
GI50 (HOP-92 NSCLC): 1.84 µM | TGI (HOP-92 NSCLC): 53.9 µM | GI50 (K-562 leukemia): 0.935 µM | TGI (K-562 leukemia): > 100 µM | GI50 (KM12 colon): 2.22 µM | TGI (KM12 colon): 24.7 µM | GI50 (OVCAR-4 ovarian): 6.54 µM | TGI (OVCAR-4 ovarian): > 100 µM | GI50 (OVCAR-8 ovarian): 4.55 µM | TGI (OVCAR-8 ovarian): > 100 µM | GI50 (SW-620 colon): 2.96 µM | TGI (SW-620 colon): > 100 µM | GI50 (U251 CNS): 4.27 µM | TGI (U251 CNS): > 100 µM | GI50 (UACC-62 melanoma): 5.67 µM | TGI (UACC-62 melanoma): > 100 µM

C[C@]12CC[C@H]3[C@@H](CC=C4C[C@@H](O)CC[C@@]43C)[C@@H]1C/C(=C\c1cccc(OCCCn3ccnc3)c1)[C@@H]2O
GI50 (HOP-92 NSCLC): 8.4 µM | TGI (HOP-92 NSCLC): 25.7 µM | GI50 (K-562 leukemia): 3.38 µM | TGI (K-562 leukemia): > 58.4 µM | GI50 (KM12 colon): 11.9 µM | TGI (KM12 colon): 28.7 µM | GI50 (OVCAR-4 ovarian): 12.8 µM | TGI (OVCAR-4 ovarian): 32.7 µM | GI50 (OVCAR-8 ovarian): 14.4 µM | TGI (OVCAR-8 ovarian): 43.1 µM | GI50 (SW-620 colon): 10.6 µM | TGI (SW-620 colon): 26.8 µM | GI50 (U251 CNS): 11.8 µM | TGI (U251 CNS): 24.7 µM | GI50 (UACC-62 melanoma): 13.2 µM | TGI (UACC-62 melanoma): 29 µM

CCCN1C(=O)/C(=C/c2ccc(O)cc2)SC1=Nc1ccccc1
GI50 (HOP-92 NSCLC): 20.3 µM | TGI (HOP-92 NSCLC): 46.5 µM | GI50 (K-562 leukemia): 92.1 µM | TGI (K-562 leukemia): > 100 µM | GI50 (KM12 colon): 19.9 µM | TGI (KM12 colon): 55.3 µM | GI50 (OVCAR-4 ovarian): 25.2 µM | TGI (OVCAR-4 ovarian): 49.5 µM | GI50 (OVCAR-8 ovarian): 25.8 µM | TGI (OVCAR-8 ovarian): 68.8 µM | GI50 (SW-620 colon): 37.8 µM | TGI (SW-620 colon): > 100 µM | GI50 (U251 CNS): 15.6 µM | TGI (U251 CNS): 29 µM | GI50 (UACC-62 melanoma): 21 µM | TGI (UACC-62 melanoma): 45.3 µM
